Test results reported in patent publication US12448366B2, “Solid forms of pralsetinib” (Rigel Pharmaceuticals, Inc., priority 2020, dated 2025).
Entries after “also recorded” stand apart in the source; their conditions may differ.

How the values were obtained:
Type in all cases: physicochemical
[1] = Dynamic vapor sorption (DVS); conditions: for XRPD / form stability after DVS humidity cycling: XRPD before and after DVS
[2] = Humidity exposure, 75% relative humidity at 40° C. for one week, XRPD; conditions: one week / 7 days, XRPD
[3] = Evaporative crystallization (Example 2B), XRPD; conditions: evaporative crystallization at 50° C., to be confirmed by other analytical methods
Description: Supernatant from some slurries was recovered for evaporative crystallization. The solutions were evaporated to dryness at 50° C. in atmospheric pressure and then placed at 50° C. under vacuum for 1.5 hours. […] It is possible that these solids were solvates with structures that collapsed to amorphous solids upon drying. Where two experiment numbers are indicated, evaporation was at different concentration.

[4] = Drying of free base solid forms (XRPD); conditions: 50° C., (under vacuum where stated)
[5] = Competitive slurry experiments between free base solid forms
[6] = Antisolvent crystallization (Example 2D), XRPD; conditions: for XRPD results of direct antisolvent experiments: direct addition; for XRPD results of reverse antisolvent experiments: reverse addition
Description: Antisolvent crystallization was done in various solvent systems. First, about 30 mg solid free base of Compound (I) characterized by XRPD Pattern C (solid form C) was dissolved in solvent. Then antisolvent crystallization was done either using the direct or reverse addition method. For direct addition, antisolvent was added dropwise to the solution until a slurry was formed. For reverse addition, solution was added all at once to the antisolvent. The volume of antisolvent used was 4 times the volume of solvent required to dissolve the solid. For example, if 0.15 mL solvent was required to dissolve the solid then the solution was added at once to […] antisolvent. Once solids were formed, the slurries were filtered and solids were recovered for XRPD analysis.

[7] = Short term slurries (Example 2A), XRPD; conditions: short term slurry, starting solids Pattern C
Description: Short term slurries were carried out at two temperature in 15 solvents during the initial screening. Starting solids were Pattern C. Most solids were Pattern C after slurrying. Solids converted to Pattern A in EtOH, IPA, acetone, and acetonitrile at both temperatures.
The upper phase was sticky and when filtered yielded a low amount of a solid form characterized by XRPD Pattern H.

[8] = Cooling crystallization (Example 2C), XRPD; conditions: for XRPD Pattern (fast cool): crash cooling from 50° C. to 0° C.; for XRPD Pattern (slow cool): from 50° C. at 5° C. per hour
Description: Cooling crystallization was done in a range of solvent systems. Two cooling regimes were used: cooling from 50° C. at 5° C. per hour, and crash cooling from 50° C. to 0° C. In all experiments, solids were completely dissolved before cooling. […] Cooling in THF gave two low crystallinity solids, Solid form N (fast cooling), and solid form I (slow cooling).

[9] = Thermal treatment in DSC followed by XRPD (Example 2G); conditions: 150° C.
Description: Select solids were used for thermal treatment in DSC. Solids were heated to specified temperature and then cooled back to room temperature for analysis by XRPD.

[10] = solvent DMAc, antisolvent cyclohexane
[11] = solvent DMAc, antisolvent water
[12] = cooling crystallization, ACN water (8:2 vol)
[13] = cooling crystallization, DMAc:ACN (2:8 vol)
[14] = cooling crystallization, DMAc:IPA (2:8 vol)
[15] = cooling crystallization, DMSO:ACN (2:8 vol)
[16] = cooling crystallization, DMSO:IPA (2:8 vol)
[17] = cooling crystallization, MeOH chloroform (1.88:1 vol), wet solid before drying

Structure (SMILES): CO[C@]1(C(=O)N[C@@H](C)c2ccc(-n3cc(F)cn3)nc2)CC[C@H](c2nc(C)cc(Nc3cc(C)[nH]n3)n2)CC1 [Solid Form C, pralsetinib]
- water gained during the dynamic vapor sorption measurements [1]: 1.44%
- hygroscopicity (words) ([1]; DVS): not as hygroscopic as pralsetinib free base in solid form A
- DVS Water Mass Change (wt. %) ([1]; Table 3E): 1.29-1.44 wt. %
- XRPD / form stability after DVS humidity cycling [1]: the same
- XRPD / form stability after DVS humidity cycling ([1]; listed as Solid form C): remained stable
- reversible mass change by DVS ([1]; between 2-95% relative humidity): about 1.4%
- total mass change observed by DVS ([1]; humidity range not given): 1.4 wt. %
- stability on exposure to 75% relative humidity at 40° C. [2]: remained stable
- stability on exposure to 75% relative humidity at 40° C. ([2]; listed as Pattern C): remained unchanged
- XRPD Pattern ([3]; DCM, solution 37 mg/mL solvent): amorphous*
- XRPD Pattern ([3]; chloroform, solution 70 mg/mL solvent): amorphous*
- behaviour upon drying at 50° C. [4]: converted to a dehydrate, Solid Form B
- behaviour upon drying at 50° C. ([4]; listed as Pattern C): pattern B
- behaviour upon drying at 50° C. ([4]; listed as solid form C): stable
- competitive slurry in acetone and isopropanol [5]: converted to solid form A
- Competitive slurry MeOH: water (1:1 vol) at 23 and 50° C. ([5]; listed as Pattern C): C stable
- Competitive slurry isopropanol, MeOH:MtBE ([5]; listed as Pattern C): C converts to A
- XRPD results of direct antisolvent experiments [6, 10]: phase sep.
- XRPD results of direct antisolvent experiments [6, 11]: C + some B (wet)
- XRPD results of direct antisolvent experiments ([6]; solvent THF, antisolvent water): oiling
- XRPD results of reverse antisolvent experiments [6, 10]: phase sep.
- XRPD results of reverse antisolvent experiments [6, 11]: C (wet)
- XRPD results of reverse antisolvent experiments ([6]; solvent MeOH, antisolvent water): C (wet)
- XRPD results of reverse antisolvent experiments ([6]; solvent THF, antisolvent heptane): am. (wet)
- XRPD results of reverse antisolvent experiments ([6]; solvent THF, antisolvent water): C (wet)
- XRPD Pattern ([7]; EtOH, 22-23° C., dried solids): A (dry)
- XRPD Pattern ([7]; EtOH, 22-23° C., wet solids): A (wet)
- XRPD Pattern ([7]; IPAc, 50° C.): A + C
- XRPD Pattern ([7]; chloroform, 22-23° C., dried solids): H (dry)
- XRPD Pattern ([7]; chloroform, 22-23° C., wet solids): H (wet)
- XRPD Pattern (fast cool) ([8]; cooling crystallization, 1,4-dioxane): no solids (−20° C.)
- XRPD Pattern (slow cool) ([8]; cooling crystallization, 1,4-dioxane, wet solid before drying): Q (wet)
- XRPD Pattern (fast cool) ([8]; cooling crystallization, 1-propanol): no solids (−20° C.)
- XRPD Pattern (slow cool) ([8]; cooling crystallization, 1-propanol, wet solid before drying): A (wet)
- XRPD Pattern (fast cool) [8, 12]: no solids (−20° C.)
- XRPD Pattern (slow cool) [8, 12]: no solids (−20° C.)
- XRPD Pattern (fast cool) [8, 13]: no solids (−20° C.)
- XRPD Pattern (slow cool) [8, 13]: no solids (−20° C.)
- XRPD Pattern (fast cool) [8, 14]: no solids (−20° C.)
- XRPD Pattern (slow cool) [8, 14]: no solids (−20° C.)
- XRPD Pattern (fast cool) [8, 15]: no solids (−20° C.)
- XRPD Pattern (slow cool) [8, 15]: no solids (−20° C.)
- XRPD Pattern (fast cool) [8, 16]: no solids (−20° C.)
- XRPD Pattern (slow cool) [8, 16]: no solids (−20° C.)
- XRPD Pattern (fast cool) ([8]; cooling crystallization, EtOAc): no solids (−20° C.)
- XRPD Pattern (slow cool) ([8]; cooling crystallization, EtOAc): very few solids
- XRPD Pattern (fast cool) ([8]; cooling crystallization, EtOH): no solids (−20° C.)
- XRPD Pattern (slow cool) ([8]; cooling crystallization, EtOH): no solids (−20° C.)
- XRPD Pattern (fast cool) ([8]; cooling crystallization, IPA): no solids (−20° C.)
- XRPD Pattern (slow cool) ([8]; cooling crystallization, IPA): A (wet)
- XRPD Pattern (fast cool) ([8]; cooling crystallization, IPAc): no solids (−20° C.)
- XRPD Pattern (slow cool) ([8]; cooling crystallization, IPAc): no solids (−20° C.)
- XRPD Pattern (fast cool) [8, 17]: D (wet)
- XRPD Pattern (slow cool) [8, 17]: D (wet)
- XRPD Pattern (slow cool) ([8]; cooling crystallization, MeOH): no solids (−20° C.)
- XRPD Pattern (fast cool) ([8]; cooling crystallization, THF): N (wet)
- XRPD Pattern (slow cool) ([8]; cooling crystallization, THF, wet solid before drying): O + I (wet)
- XRPD Pattern (fast cool) ([8]; cooling crystallization, acetone): no solids (−20° C.)
- solid form after heating to 150° C. [9]: converted to Pattern B (anhydrous); also recorded: converted to solid form B
